Reference: patent publication US7259186B2, “Salts of fenofibric acid and pharmaceutical formulations thereof” (Abbott Laboratories, priority 2002, dated 2007)
Where a name gives a salt, the structure may show the parent alone.

Assay: Solid state photostability (ICH light exposure, HPLC recovery)
Assay type: physicochemical
Conditions: light 300–800 nm under ICH Guideline conditions; lack of degradation = recovery of 95% or greater
Text: The terms “photostability” and “photostable” are used interchangeably herein and refer to a lack of degradation induced by exposure to light from 300–800 nm under the conditions described in the “Guideline for the Photostability Testing of New Drug Substances and Products” (International Conference on Harmonization. Federal Register 1997; […]:27115–22, which is herein incorporated by reference) (hereinafter referred to as the “Guidelines”). As used herein, the term of “lack of degradation” means a recovery of 95% or greater on average, preferably a recovery of 97% or greater on average and most preferably, a recovery of 99% or greater on average of the novel salts of the present invention after exposure to light from 300–800 nm under the conditions described in the Guidelines described above and pursuant to the assay described in Example 28.
About 1–4 mg of each of fenofibric acid form I, fenofibric acid form II, choline, diethanolamine, tromethamine, sodium, calcium, ethanolamine, meglumine, L-lysine, and piperazine was weighed into separate 4 mL clear glass vials. […]
The vials were sealed with PTFE lined caps, and divided into 2 groups with at least three replicates in each group. […] At the end of the light exposure, all samples and controls were removed and analyzed by HPLC using the conditions shown below in Table 6. […]

Structure (SMILES) | photostability (in words)
CC(C)(Oc1ccc(C(=O)c2ccc(Cl)cc2)cc1)C(=O)O [L-Lysine salt, reference compound] | not photostable
CC(C)(Oc1ccc(C(=O)c2ccc(Cl)cc2)cc1)C(=O)O [Meglumine salt, reference compound] | not photostable
